Data as given in PMC5490157 (DARU Journal of Pharmaceutical Sciences, 2017).
Where “and” joins values, the source holds several entries; their conditions need not be identical. Equal values may be shown once. Marks after values point to notes of the source that are not given here.

Columns and labels:
[1] = Isolated perfused rat liver, single-pass perfusion with MRZ-containing Krebs-Henselit buffer, control vs MDMA-pretreated rats; perfusate analysed by HPLC; settings: for Mean outlet perfusate concentration at four latest samples / Metabolic ratio (metabolite concentration divided by MRZ concentration) at four latest sampling time intervals: mean ± SD; for CLh (hepatic clearance) / CLint (intrinsic clearance): ±SD; for AUC(0-t) at 1 μg/ml: rat, isolated perfused rat liver (single-pass); for Decrease in metabolite concentration, treatment vs control: four latest samples; for Decrease in metabolic ratio, treatment vs control: four latest sampling time intervals
CYP2D6 [2] = system: CYP2D6; parameters: method as in PMID 16714321; settings: irreversible inhibition of CYP2D6; cited from earlier work
CYP2D6 [3] = test: Effect of MDMA on CYP2D6-mediated MRZ metabolism (8-OH formation) in isolated perfused rat liver; settings: MDMA 3 mg/kg IP 1 hour before MRZ perfusion; inferred from 8-OH formation
CYP3A4 = test: Effect of MDMA on CYP3A4-mediated MRZ metabolism (NDES formation) in isolated perfused rat liver; settings: MDMA 3 mg/kg IP 1 hour before MRZ perfusion; inferred from NDES formation
[4] = MDMA 3 mg/kg IP 1 hour before MRZ
[5] = control group (n = 6), MRZ inlet 1 μg/ml
[6] = treatment group (MDMA 3 mg/kg IP 1 hour before), individual rats 1-6
[7] = treatment group (n = 6), MDMA 3 mg/kg IP 1 hour before MRZ 1 μg/ml
[8] = treatment group (n = 6), MDMA 3 mg/kg IP 1 hour before
[9] = control group, individual rats 1-6, metabolite formed from MRZ 1 μg/ml
[10] = treatment group (MDMA 3 mg/kg IP 1 hour before), mean (n = 6)

For `CN1CCN2c3ncccc3Cc3ccccc3C2C1` (stereo not drawn) [MRZ, Mirtazapine, reference compound], the “Decrease in CLint, treatment vs control” value [1, 4] was 60%, the “Increase in AUC (0–120) of parent drug, treatment vs control” value [1, 4] was 50% and the “Mean outlet perfusate concentration at four latest samples” value (shortened to “Mean outlet perfusate concentration”) [1, 5] was 131.9 ± 56.9 ng/mL. For the same molecule, the “CLh (hepatic clearance)” value ([1]; control group (n = 6), CLh=Q×E, Q 8.3 ml/min) was 7.2 ± 0.5 mL/min and 7.21 ± 0.47 mL/min, the “CLint (intrinsic clearance)” value ([1]; control group (n = 6), CLint=E×Q/F) was 63.4 ± 25.8 mL/min and 63.4 ± 25.81 mL/min and the “AUC (0–120) MRZ Control” value ([1]; control group, individual rats 1-6) was 9928.7 ng.min/ml and 16,443.6 ng.min/ml and 10,611.4 ng.min/ml and 13,295.1 ng.min/ml and 19,497.1 ng.min/ml. It also gave an AUC(0-t) at 1 μg/ml ([1]; AUC (0–120) MRZ Control, MEAN, control group, mean (n = 6)) of 237 ng·h/mL, an AUC(0-t) at 1 μg/ml ([1]; AUC (0–120) MRZ Control, control group, individual rats 1-6) of 259 ng·h/mL and an AUC(0-t) at 1 μg/ml ([1]; ip, 3 mg/kg, AUC (0–120) MRZ Treatment, MEAN, treatment group (MDMA 3 mg/kg IP 1 hour before), mean (n = 6)) of 358 ng·h/mL. The AUC(0-t) at 1 μg/ml ([1]; ip, 3 mg/kg, AUC (0–120) MRZ Treatment, treatment group (MDMA 3 mg/kg IP 1 hour before), individual rats 1-6) was 401 ng·h/mL, the “AUC (0–120) MRZ Treatment” value [1, 6] was 18,031.1 ng.min/ml and 17,675.6 ng.min/ml and 23,553.7 ng.min/ml and 23,063.4 ng.min/ml and 22,680.5 ng.min/ml and the “Mean outlet perfusate concentration” value [1, 7] was 236.8 ± 44.7 ng/mL. The “CLh (hepatic clearance)” value [1, 8] was 6.3 ± 0.4 mL/min and 6.33 ± 0.37 mL/min and the “CLint (intrinsic clearance)” value [1, 8] was 27.7 ± 6.3 mL/min and 27.71 ± 6.26 mL/min.

In the case of `CNC(C)Cc1ccc2c(c1)OCO2` (stereo not drawn) [MDMA, 3,4-methylenedioxymethamphetamine], the “Time after MDMA administration at which mechanism-based inhibition of most CYP2D6 isoenzymes is demonstrated” value (CYP2D6 [2]) is given as at most 1 h, the “Effect on CYP2D6 hepatic isoenzyme” value (CYP2D6 [3]) is given as “inhibitory effects” and the “Effect on CYP3A4 hepatic isoenzyme” value (CYP3A4) is given as “inhibitory effects”.

In the case of `CN1CCN2c3ncc(O)cc3Cc3ccccc3C2C1` (stereo not drawn) [8-OH, 8-hydroxymirtazapine], the “Decrease in AUC (0–120) of metabolite, treatment vs control” value [1, 4] was 70%, the “Mean outlet perfusate concentration” value [1, 5] was 10.3 ± 3.2 ng/mL and the “Metabolic ratio (metabolite concentration divided by MRZ concentration) at four latest sampling time intervals” value ([1]; control group (n = 6)) was 0.1 ± 0.05. For the same molecule, the “AUC (0–120) 8-OH Control” value [1, 9] was 2124.9 ng·min/mL and 1398.9 ng·min/mL and 1960.2 ng·min/mL and 1674.1 ng·min/mL and 610.9 ng·min/mL and 588.2 ng·min/mL, the “AUC (0–120) 8-OH Control, MEAN” value ([1]; control group, mean (n = 6)) was 1392.9 ng·min/mL and the “Decrease in metabolite concentration, treatment vs control” value [1, 4] was 50%. For the same molecule, the “Decrease in metabolic ratio, treatment vs control” value [1, 4] was 83%, the “AUC (0–120) 8-OH Treatment” value [1, 6] was 287.5 ng·min/mL and 398.6 ng·min/mL and 449.2 ng·min/mL and 415.4 ng·min/mL and 371.3 ng·min/mL and 920.5 ng·min/mL and the “AUC (0–120) 8-OH Treatment, MEAN” value [1, 10] was 473.7* ng.min/ml. For the same molecule, the “Mean outlet perfusate concentration” value [1, 7] was 4.7 ± 2.9 ng/mL and the “Metabolic ratio (metabolite concentration divided by MRZ concentration) at four latest sampling time intervals” value [1, 8] was 0.02 ± 0.008.

For `c1ccc2c(c1)Cc1cccnc1N1CCNCC21` (stereo not drawn) [NDES, N-desmethylmirtazapine], the “Decrease in AUC (0–120) of metabolite, treatment vs control” value [1, 4] was 60%, the “Mean outlet perfusate concentration” value [1, 5] was 188.6 ± 63.44 ng/mL and the “Metabolic ratio (metabolite concentration divided by MRZ concentration) at four latest sampling time intervals” value ([1]; control group (n = 6)) was 1.7 ± 0.8. The “AUC (0–120) NDES Control” value [1, 9] was 28,525.2 ng.min/ml and 22,505.4 ng.min/ml and 15,171.6 ng.min/ml and 18,839.8 ng.min/ml and 11,195.2 ng.min/ml and 12,075.7 ng.min/ml, the “AUC (0–120) NDES Control, MEAN” value ([1]; control group, mean (n = 6)) was 18,052.1 ng.min/ml and the “Decrease in metabolite concentration, treatment vs control” value [1, 4] was 50%. For the same molecule, the “Decrease in metabolic ratio, treatment vs control” value [1, 4] was 79%, the “AUC (0–120) NDES Treatment” value [1, 6] was 593.7 ng.min/ml and 12,111.8 ng.min/ml and 15,346.2 ng.min/ml and 5860.1 ng.min/ml and 10,613.3 ng.min/ml and 3605.2 ng.min/ml and the “AUC (0–120) NDES Treatment, MEAN” value [1, 10] was 8021.7* ng.min/ml. For the same molecule, the “Mean outlet perfusate concentration” value [1, 7] was 98.5 ± 64.3 ng/mL and the “Metabolic ratio (metabolite concentration divided by MRZ concentration) at four latest sampling time intervals” value [1, 8] was 0.45 ± 0.3.
